In patent publication EP0414569A2, “Three-liquid-phase epoxidation of perfluoroolefins” (E.I. DU PONT DE NEMOURS AND COMPANY, priority 1989, dated 1991):

Legend:
[1] = Determination of the HFP-HFPO partition coefficient (alpha) in an organic liquid: HFP/HFPO gas mixture passed through the liquid, dissolved gases measured by gas chromatography; assay type: physicochemical; settings: HFP-HFPO partition coefficient of the organic liquid, atmospheric pressure
Protocol: A simple method of determining this preference (using HFP over HFPO as an example of other olefins and their epoxides covered by this invention) is to determine the partition coefficient for the system HFPO-HFP-organic liquid. Determination of the partition coefficient (alpha) is carried out by passing a mixture of HFP and HFPO gas through the organic liquid at atmospheric pressure while agitating vigorously and maintaining a constant temperature. The gas is passed through the liquid long enough to ensure that the liquid is completely saturated with the gases and to let the gas phase composition equilibrate to the feed composition. The organic liquid phase is then sampled and gas chromatography is used to determine the amount of the gaseous components which had been dissolved in the liquid phase. The partition coefficient, alpha, is then calculated by the following equation: [formula]
Using this method, partition coefficients were determined for a number of organic liquids at -15°C and 0°C, with the results shown below: […]

[2] = Miscibility of toluene with HFP and HFPO; assay type: physicochemical; settings: in toluene; miscibility sharply affected by temperature
Description: Certain organic liquids show more affinity for perfluoroolefins than for their epoxides and they are desired for use in this invention. […] With mixtures of HFP and HFPO as would exist in a continuous back-mixed reactor, immiscibility exists at higher temperatures. It is believed that organic liquids which are substantially halogenated will not form two phases with HFP or HFPO. […] Therefore, a hydrogen-containing organic liquid is used.

Row | Compound | Alpha at 0°C [1] | Alpha at -15°C [1] | concentration at which toluene becomes immiscible [2]
1 | FC(F)(F)C(F)(F)C(F)(F)C(F)(F)C1(F)OC(F)(F)C(F)(F)C1(F)F (centres unmarked) [FC-75, Perfluoro(butyl tetrahydrofurane)] | 1.0 | 1.0 | 
2 | FC(F)=C(F)C(F)(F)F [HFP, hexafluoropropylene] |  |  | 20-40 wt %
3 | FC(F)(F)C1(F)OC1(F)F (centres unmarked) [HFPO, hexafluoropropylene epoxide] |  |  | 3-6 wt %
4 | COc1ccccc1 [anisole] | 2.5 | 2.4 | 
5 | Clc1ccccc1 [chlorobenzene] | 2.1 | 1.9 | 
6 | Cc1cc(C)cc(C)c1 [mesitylene] | 2.2 | 2.3 | 
7 | CCCCCCCCCC [n-decane] | 1.3 | 1.6 | 
8 | dichlorobenzene | 2.1 | 2.0 | 
